{"source": "paper PMC7797213", "about": "“Vascular effects of serelaxin in patients with stable coronary artery disease: a randomized placebo-controlled trial” (Cardiovascular Research, 2020)", "format_in_all_cases": "in vivo, human", "key": {"[1]": {"tested_on": "patients with stable coronary artery disease", "experiment": "CMR left and right ventricular volumes and ejection fraction", "source_text": "A standardized CMR protocol was acquired on 1.5 T (Siemens Avanto) or 3.0 T (Siemens Skyra and Verio) magnetic resonance imaging (MRI) scanners. The CMR protocol included standard localizers, long- and short-axis cine acquisitions, stress and rest first-pass perfusion, and late gadolinium enhancement (LGE) imaging as previously described.[24] For perfusion imaging, a saturation recovery prepared fast gradient echo sequence was used to acquire dynamic contrast-enhanced CMR during adenosine stress (140–280 µg/kg/min for 3 min) and rest, during first-pass of the IV administered contrast agent (Gadovist, 0.05 mmol/kg, 5 mL/s), followed by 20 mL saline injection (5 mL/s). Three short-axis planes through the left ventricle (basal, mid-ventricular, and apical) were obtained. […]\nCMR image collection, blinding, and handling were managed by an independent imaging contract-research organization (CRO; VirtualScopics, Inc., Rochester, NY, USA). The CMR quantitative analyses were performed by blinded academic readers with >3 years of CMR experience (D.C., A.R., and C.B.). […] Global MPR was calculated from the ratio of global MBF evaluated at stress and at rest (MPR = stress MBF/rest MBF). Global MBF was calculated by averaging the MBF (mL/g/min) for basal, mid, and apical short-axis left ventricular slices. […] The presence or absence of myocardial scar was qualitatively assessed on the LGE images."}, "[2]": {"experiment": "Serum serelaxin pharmacokinetics (ELISA, non-compartmental)", "description": "Blood samples (approximately 2 mL) for pharmacokinetic (PK) evaluation were collected at 0 (pre-dose), 24, 48, 50, and 54 h, and Day 30. Serum serelaxin concentration was determined by an enzyme-linked immunosorbent assay, developed and validated based upon a commercially available kit (Quantikine ELISA kit, R&D systems, MN, USA).[29] The PK parameters were calculated using non-compartmental methods that included steady-state concentration (Css) and systemic clearance (CL). Css was estimated using the serum concentration determined at 48 h, while CL was estimated using the rate of infusion and Css for each patient."}, "[3]": {"tested_on": "patients with stable coronary artery disease", "experiment": "Applanation tonometry carotid-femoral pulse wave velocity (PWV)", "conditions": "for PWV, absolute value: mean ± SD; for PWV, adjusted mean difference serelaxin versus placebo / PWV, change from baseline (adjusted mean): repeated measures ANCOVA", "description": "Secondary endpoints included: the change from baseline in AIx and pulse wave velocity (PWV) assessed at the end of treatment, Day 30 and Day 180; aortic distensibility (assessed with CMR and PWV methods) at the end of treatment; pharmacokinetics and safety (adverse events, serious adverse events, and vital signs) of 48 h infusion of serelaxin 30 μg/kg/day. The changes in levels of circulating biomarkers of cardiorenal and vascular function during and after treatment with serelaxin were also assessed as part of the exploratory endpoints.\nThe applanation tonometry assessments were performed by blinded operators. Augmentation index [AIx = (augmentation pressure/pulse pressure) × 100], and carotid-femoral PWV were measured by applanation tonometry (Sphygmocor®, AtCor Medical, Australia) at a proximal (carotid artery) and a distal (femoral artery) site of the body, utilizing R-wave gated determination of the time interval between the two measurement points. An averaged carotid pressure waveform (from a 10 s recording) was converted into a corresponding central waveform using a validated transfer function (SphygmoCor®, AtCor, Australia).[27]^,[28]"}, "NT-proBNP": {"tested_on": "NT-proBNP", "experiment": "Plasma biomarker NT-proBNP", "conditions": "for NT-proBNP, geo-mean (95% CI): plasma", "description": "Biomarkers reported include: N-terminal pro-brain natriuretic peptide (NT-proBNP), high-sensitivity troponin T (hsTnT) measured to assess myocardial safety; cystatin C measured to access renal function; the biologically active form of endothelin-1 (1–21), measured to assess vascular function. Venous blood samples were collected at 0 (pre-dose), 24, 48, and 54 h, Day 30, and Day 180. NT-proBNP, hsTnT, and cystatin C samples were collected in EDTA tubes while endothelin-1 samples were collected in EDTA tubes containing aprotinin. Plasma was immediately frozen at −70°C pending analysis in complete patient sets. Commercial biomarker kits were as follows: hsTnT from Roche Diagnostics GmbH, Germany; cystatin C from Gentian, Moss, Norway; and active endothelin-1 […] from Biomedica Medizinprodukte, Vienna, Austria.\nFor the biomarker analyses, baseline was defined as the pre-dose assessment on Day 1. Raw values as well as changes from baseline were summarized by treatment and time. Descriptive statistics included geometric mean and 95% CI. For geometric means of change from baseline, a ratio to baseline was used to determine percentage change by first calculating in the log domain and then back transforming using exponentiation.\nBaseline corresponds to the value at day 1 pre-dose. For change from baseline, geometric mean and its CI are calculated for the value (post) to baseline ratio."}}, "data": [{"substance": "Serelaxin", "values": [{"measurement": "Left and right ventricular volumes and ejection fractions, change from baseline compared with placebo", "setting": "[1]; baseline to 47 h, CMR", "value": "no statistically significant changes"}, {"measurement": "Left ventricular ejection fraction, mean value", "setting": "[1]; remained in the normal range, no significant changes with serelaxin treatment", "value": 63, "unit": "%"}, {"measurement": "Systemic clearance (CL), geometric mean", "setting": "[2]; estimated from rate of infusion and Css, 48 h IV infusion 30 µg/kg/day", "value": 1.38, "unit": "mL/min/kg"}, {"measurement": "Steady-state serum concentration (Css), geometric mean", "setting": "[2]; serum concentration at 48 h of 48 h IV infusion 30 µg/kg/day, ELISA, non-compartmental", "value": 15.1, "unit": "ng/mL"}, {"measurement": "PWV, absolute value", "setting": "[3]; 0 h (pre-dose baseline), n=22", "value": "7.45 ± 2.05 (22) meters/second"}, {"measurement": "PWV, adjusted mean difference serelaxin versus placebo", "setting": "[3]; 24 h", "value": -0.157, "unit": "meters/second"}, {"measurement": "PWV, adjusted mean difference serelaxin versus placebo", "setting": "[3]; 24 h, listed as serelaxin", "value": "−0.16", "unit": "meters/second"}, {"measurement": "PWV, change from baseline (adjusted mean)", "setting": "[3]; 24 h, n=19", "value": -0.54, "unit": "meters/second"}, {"measurement": "PWV, absolute value", "setting": "[3]; 24 h post-dose, n=19", "value": "7.05 ± 1.88 (19) meters/second"}, {"measurement": "PWV, adjusted mean difference serelaxin versus placebo", "setting": "[3]; 47 h", "value": -0.34, "unit": "meters/second"}, {"measurement": "PWV, change from baseline (adjusted mean)", "setting": "[3]; 47 h, n=21", "value": -0.26, "unit": "meters/second"}, {"measurement": "PWV, absolute value", "setting": "[3]; 47 h post-dose, n=22", "value": "7.20 ± 1.92 (22) meters/second"}, {"measurement": "PWV, absolute value", "setting": "[3]; Day 30, n=23", "value": "7.99 ± 1.82 (23) meters/second"}, {"measurement": "PWV, adjusted mean difference serelaxin versus placebo", "setting": "[3]; Day 30", "value": -0.06, "unit": "meters/second"}, {"measurement": "PWV, adjusted mean difference serelaxin versus placebo", "setting": "[3]; Day 30, listed as serelaxin", "value": "−0.06", "unit": "meters/second"}, {"measurement": "PWV, change from baseline (adjusted mean)", "setting": "[3]; Day 30, n=20", "value": 0.35, "unit": "meters/second"}, {"measurement": "PWV, absolute value", "setting": "[3]; Day 180, n=23", "value": "8.34 ± 2.11 (23) meters/second"}, {"measurement": "PWV, adjusted mean difference serelaxin versus placebo", "setting": "[3]; Day 180", "value": 0.12, "unit": "meters/second"}, {"measurement": "PWV, change from baseline (adjusted mean)", "setting": "[3]; Day 180, n=20", "value": 0.93, "unit": "meters/second"}, {"measurement": "NT-proBNP change from baseline, geometric mean ratio to baseline (95% CI)", "setting": "NT-proBNP; 24 h, n=27", "value": "0.89 (0.77, 1.02)"}, {"measurement": "NT-proBNP change from baseline, geometric mean ratio to baseline (95% CI)", "setting": "NT-proBNP; 48 h, n=28", "value": "1.03 (0.79, 1.34)"}, {"measurement": "NT-proBNP change from baseline, geometric mean ratio to baseline (95% CI)", "setting": "NT-proBNP; 54 h, n=27", "value": "1.36 (1.06, 1.75)"}, {"measurement": "NT-proBNP change from baseline, geometric mean ratio to baseline (95% CI)", "setting": "NT-proBNP; Day 30, n=29", "value": "1.02 (0.80, 1.29)"}, {"measurement": "NT-proBNP change from baseline, geometric mean ratio to baseline (95% CI)", "setting": "NT-proBNP; Day 180, n=29", "value": "1.17 (0.86, 1.58)"}, {"measurement": "NT-proBNP, geo-mean (95% CI)", "setting": "NT-proBNP; 0 h (pre-dose baseline), n=29", "value": "87.0 (60.2, 125.8) pg/mL"}, {"measurement": "NT-proBNP, geo-mean (95% CI)", "setting": "NT-proBNP; 24 h, n=27", "value": "74.7 (51.9, 107.5) pg/mL"}, {"measurement": "NT-proBNP, geo-mean (95% CI)", "setting": "NT-proBNP; 48 h, n=28", "value": "86.8 (57.7, 130.5) pg/mL"}, {"measurement": "NT-proBNP, geo-mean (95% CI)", "setting": "NT-proBNP; 54 h, n=27", "value": "117.1 (79.9, 171.7) pg/mL"}, {"measurement": "NT-proBNP, geo-mean (95% CI)", "setting": "NT-proBNP; Day 30, n=29", "value": "88.4 (60.3, 129.7) pg/mL"}, {"measurement": "NT-proBNP, geo-mean (95% CI)", "setting": "NT-proBNP; Day 180, n=29", "value": "101.6 (69.9, 147.8) pg/mL"}]}]}
